{
  "source": "patent US10046032B2",
  "about": "“Use of insulin for promoting gastric emptying” (NUTRINIA LTD., priority 2016, dated 2018)",
  "key": {"preterm infants [1]": {"tested_on": "preterm infants", "test": "Twin pair study: days until gastric residuals fall, insulin-enriched preterm formula vs placebo", "assay_type": "in vivo, human", "details": "twin pairs", "excerpt": "(§1) Evaluation of gastric residuals (GR) is used in neonatal intensive care units to measure the volume of milk remaining in the stomach at a variable time after a feeding, and as an indicator of gastric emptying (GE).\n(§2) 33 preterm infants, aged up to 7 days old, born between 26-33 weeks of pregnancy, weighing over 750 grams, who are free from high index suspicion for infection showing stable condition were enrolled into this study.\n(§3) The study products included the insulin composition disclosed herein and placebo. The insulin composition is intended to be mixed with 90 ml ready to feed (RTF) preterm infant formula (manufacturer: Nestle Germany, importer: Materna Laboratories, Israel). Once the insulin is added to the formula, the formula has the concentration of 400 μU Insulin/ml formula.\n(§4) Standard feeding bottles and nipples were used.\n(§5) The gastric residual amount was measured after every meal.\nTwin pairs, treated with insulin as described above, were examined for number of days until gastric residual measurements reached less than 0 ml/kg body weight (FIG. 2 and Table 1) or 2 ml/kg (FIG. 1 and Table 2). […] The enteral administration of insulin strikingly provided a statistically significant improvement in the number of days until gastric residuals reached […] body weight, or <2 ml/kg body weight, relative to control treated infants."}, "preterm infants [2]": {"tested_on": "preterm infants", "test": "Singleton study: days until gastric residuals fall, insulin-enriched preterm formula vs placebo", "assay_type": "in vivo, human", "details": "singletons", "excerpt": "as §1, §2, §3, §4, §5\nSingletons were examined for number of days until gastric residual measurements reached less than 2 ml/kg body weight (FIG. 3) and until no gastric residuals were emitted (Table 3)."}, "preterm infants [3]": {"tested_on": "preterm infants", "description": "A Multi-center, two arms, randomized, double-blinded placebo controlled study was conducted to evaluate the effect of insulin-enriched infant formula on preterm infants. The insulin was given within a liquid infant formula with insulin concentration of 400 μU/ml. The study primary goal was to determine whether insulin supplement within the basic preterm oral formula enhances gastric emptying. The gastric emptying was evaluated by the reduction in the amount of gastric residual of the preterm infants.\nThe infants were randomly assigned to one of two treatment groups: the study product containing insulin as a test group and Placebo supplement as a control group. The parents, the medical team treating the infants and the study monitor were blinded to the treatment arm. From study day 1, the infants in the test group received insulin mixed with the ready to feed (RTF) preterm Materna formula and the control group received a placebo supplement mixed with the same RTF preterm Materna formula.\nThe insulin composition was used according to study definitions and feeding protocol only. Formula administration was begun at study day 1 and continued throughout the following 28 days or discharge day if achieved prior to day 28. […]"}, "[4]": {"details": "insulin 400 μU/ml in formula, up to 28 days"}},
  "note": "“And” between values parts separate entries of the source, which are not always exact repeats. Equal values may be shown once.",
  "data": [
    {"substance": "Human insulin", "values": [
      {"measurement": "Time to reach gastric residuals of less than 2 ml/kg or 0 ml/kg versus control twin", "setting": "preterm infants [1]; FIG. 1 (p=0.031) and FIG. 2 (p=0.074)", "result": "earlier than their control infant twin in most twin pairs"},
      {"measurement": "Number of days until gastric residuals reached 0 ml/Kg body weight, Median", "setting": "preterm infants [1]; [4]", "result": 0.0, "unit": "days"},
      {"measurement": "Number of days until gastric residuals reached < 2 ml/Kg body weight, Median", "setting": "preterm infants [1]; [4]", "result": 0, "unit": "days"},
      {"measurement": "Number of days until gastric residuals reached < 2 ml/Kg body weight, Average", "setting": "preterm infants [1]; insulin 400 μU/ml in formula, up to 28 days, P = 0.031 vs control", "result": 3.8, "unit": "days"},
      {"measurement": "Number of days until gastric residuals reached 0 ml/Kg body weight, Average", "setting": "preterm infants [1]; insulin 400 μU/ml in formula, up to 28 days, P = 0.074 vs control", "result": 4.1, "unit": "days"},
      {"measurement": "Time to reach gastric residuals of less than 2 ml/kg versus control", "setting": "preterm infants [2]; FIG. 3, P=0.121", "result": "earlier than the control"},
      {"measurement": "Time to reach no gastric residuals (0 ml/kg) versus control", "setting": "preterm infants [2]; Table 3, P=0.021", "result": "earlier than their control singletons"},
      {"measurement": "Number of days until no gastric residuals are emitted, Median (range)", "setting": "preterm infants [2]; insulin 400 μU/ml in formula, P=0.021 vs control", "result": "0.0 (0-2) days"},
      {"measurement": "Number of days until no gastric residuals are emitted, individual infant", "setting": "preterm infants [2]; treatment infants no. 1-6, insulin 400 μU/ml in formula", "result": "0 days (5×) and 2 days"},
      {"measurement": "Deleterious effects resulting from the insulin administration", "setting": "preterm infants [3]; low birth weight / preterm infants, enteral insulin", "result": "No deleterious effects"},
      {"measurement": "Effect on blood glucose or insulin levels", "setting": "preterm infants [3]; orally administered to preterm infants", "result": "without affecting the blood glucose or insulin levels"}
    ]}
  ]
}
